Results: patent US20260297060A1, “COMPOUNDS FOR THE DEGRADATION OF MUTANT BRAF” (C4 THERAPEUTICS, INC., priority 2023, published 2026)
Where two headings read alike, the source gives them in different places.

Columns and labels:
[1] = test system: A375 human melanoma xenografts; assay: Example 6 efficacy study in A375 human melanoma xenografts (tumor volume, T/C, TGI); assay type: in vivo, BALB/c nude mice; conditions: 10 mg/kg, p.o., BID × 21 days; for T/C / TGI / Tumor Size on PG-D21: PG-D21; for Tumor Size on PG-D21 / Tumor volume: Mean ± SEM
Procedure: For efficacy study, compounds were tested in the A375 human melanoma xenografts. Known BRAF inhibitors encorafenib, and dabrafenib were used as positive controls. Encorafenib and dabrafenib were administered to BALB/c nude mice bearing A375 tumors on PG-D1 and dosed PO daily (QD) for 3 weeks. Encorafenib was dosed at 35 mg/kg. Dabrafenib was dosed at 100 mg/kg. Compound 83, Compound 93, Compound 70, and Compound 54 were administered to BALB/c nude mice bearing A375 tumors on PG-DO and dosed PO twice per day (BID) for 3 weeks. Compound 83, Compound 93, Compound 70, and Compound 54 were dosed at 10 mg/kg.
The A375 tumor cells were maintained in vitro in DMEM medium supplemented with […] and 1% Penicillin-Streptomycin at 37° C. in an atmosphere of 5% CO2 in air. The tumor cells were routinely subcultured twice weekly. The cells growing in an exponential growth phase were harvested and counted for tumor inoculation.
Each mouse was inoculated subcutaneously at the right flank with A375 tumor cells (5×10^6) in 0.2 mL of PBS with Matrigel (PBS: Matrigel=1:1) supplemented for tumor development. Animals were grouped for the treatment on day 16 after tumor inoculation when the average tumor volume reached 221 mm^3 for efficacy study and 386 mm^3 for PKPD study. The test articles administration and the animal numbers in each group are shown in the above experimental Tables.
Prior to the onset of drug treatment, mice were measured for tumor size in two dimensions using a caliper, and the tumor volume (mm^3) was calculated using formula V=0.5 a×b^2 where a and b are the long and short diameters of the tumor in mm, respectively. Mice were randomized into different treatment groups based on the tumor volume.
The major endpoint was to see if the tumor growth could be delayed or mice could be cured. The tumor size was then used for calculations of T/C value. The T/C value (in percent) is an indication of antitumor effectiveness; T and C are the mean volumes of the treated and control groups, respectively on specified day.
TGI was calculated for each group using the formula: TGI (%)=[1−(Ti−T0)/(Ci−C0)]×100; Ti is the average tumor volume of a treatment group on a given day, T0 is the average tumor volume of the treatment group on the day of treatment start, Ci is the average tumor volume of the vehicle control group on the same day with Ti, and C0 is the average tumor volume of the vehicle group on the day of treatment start.

[2] = Example 6 pharmacokinetics assay for PKPD study (plasma, tumor, liver); assay type: in vivo, BALB/c nude mice; conditions: 10 mg/kg, single dose; for concentration at 6 h / concentration at 12 h / concentration at 1 h / concentration at 24 h: mouse, po
Procedure: For the pharmacokinetic/pharmacodynamic (PKPD) study, compounds were tested in the A375 human melanoma xenografts. Known BRAF inhibitors encorafenib, and dabrafenib were used as positive controls. Encorafenib, dabrafenib, Compound 83, Compound 93, Compound 70, and Compound 54 were administered to BALB/c nude mice bearing A375 tumors on PG-D1 and dosed orally (PO) once. Encorafenib was dosed at 35 mg/kg. Dabrafenib was dosed at 100 mg/kg. Compound 83, Compound 93, Compound 70, and Compound 54 were dosed at 10 mg/kg. The plasma and tumor samples were collected at 1, 6, 12 and 24 hours, and liver samples were collected at 6 hours and 12 hours post the single dose. This study was non-GLP study.
The plasma samples were collected at predetermined time points for PK analysis. The mice were euthanized at predetermined time points post the treatment. The blood samples were collected into the 1.5 mL Eppendorf tubes containing 15 μL of 0.5 M EDTA-K2. And then the anticoagulant blood samples were centrifuged at 2,500 g at 4° C. for 15 minutes. The plasma samples were separated into 2 aliquots. The 1st was used for PK analysis, and the 2nd served as backup. The samples were stored at −80° C. before bioanalysis.
The tumor samples were collected at predetermined time points for PK and WB analysis (B-RAF and p-ERK). The tumor was dissected out and split into 3 parts. The 1st part was used for PK analysis, the 2nd part was used for WB analysis and the last one served as backup for study. The samples were transferred into pre-labeled tubes and quickly froze in liquid nitrogen within 2 minutes after dissection. The samples were stored at −80° C. before bioanalysis.
Liver samples were collected at predetermined time points for PK analysis. The left lobe of the liver was dissected out and split into 2 parts. The 1st part was used for PK analysis and the 2nd part served as the backup for the study. The samples were transferred into pre-labeled tubes and quickly froze in liquid nitrogen within 2 minutes after dissection. The samples were stored at −80° C. before bioanalysis.
For PKPD study, the harvested plasma, tumor and liver were processed for pharmacokinetics analysis by LC/MS/MS with a concentration range of 0.5-1000 ng/mL for Encorafenib and Dabrafenib in plasma, 0.05-100 ng/mL for Encorafenib and Dabrafenib in tumor, 0.2-200 ng/mL for Encorafenib and Dabrafenib in liver, 2.0-2000 ng/mL for compound 93, compound 83, compound 54 and compound 70 in liver, 50.0-50000 ng/mL for compound 83 and compound 70 in plasma, 0.5-1000 ng/mL for compound 83 and compound 70 in tumor, 1.0-2000 ng/mL for compound 93 in plasma, 10.0-20000 ng/mL for compound 54 in plasma, 0.5-500 ng/mL for compound 93 and compound 54 in tumor.

[3] = liver, 6 h, read-out: Concentration in Liver (mean ± SEM)
[4] = liver, 12 h, read-out: Concentration in Liver (mean ± SEM)
[5] = plasma, 1 h, read-out: Concentration in Plasma (mean ± SEM)
[6] = plasma, 6 h, read-out: Concentration in Plasma (mean ± SEM)
[7] = plasma, 12 h, read-out: Concentration in Plasma (mean ± SEM)
[8] = plasma, 24 h, read-out: Concentration in Plasma (mean ± SEM)
[9] = tumor, 1 h, read-out: Concentration in Tumor (mean ± SEM)
[10] = tumor, 6 h, read-out: Concentration in Tumor (mean ± SEM)
[11] = tumor, 12 h, read-out: Concentration in Tumor (mean ± SEM)
[12] = tumor, 24 h, read-out: Concentration in Tumor (mean ± SEM)

concentration at 6 h [2, 3]	concentration at 12 h [2, 4]	concentration at 1 h [2, 5]	concentration at 6 h [2, 6]	concentration at 12 h [2, 7]	concentration at 24 h [2, 8]	concentration at 1 h [2, 9]	concentration at 6 h [2, 10]	concentration at 12 h [2, 11]	concentration at 24 h [2, 12]	Structure (SMILES)	T/C [1]	TGI [1]	Tumor Size on PG-D21 [1]	Tumor volume ([1]; day 0)	Tumor volume ([1]; day 4)	Tumor volume ([1]; day 7)	Tumor volume ([1]; day 11)	Tumor volume ([1]; day 14)	Tumor volume ([1]; day 18)	Tumor volume ([1]; day 21)	further results
4470 ± 501 ng/g	650 ± 84.2 ng/g	7740 ± 1180 ng/mL	3410 ± 703 ng/mL	605 ± 124 ng/mL	54 ± 9.5 ng/mL	513 ± 28.8 ng/g	931 ± 147 ng/g	477 ± 125 ng/g	29.8 ± 2.9 ng/g	CCN(C)S(=O)(=O)Nc1ccc(F)c(Oc2ccc3ncc([C@@H]4COC5(CCN(C6CCC(c7cc8c(cc7F)c(N7CCC(=O)NC7=O)nn8C)CC6)CC5)C4)nc3c2)c1C#N (single isomer, unassigned) [Compound 54]	4.1%	106.6%	90 ± 27 mm^3	221 ± 11 mm^3	132 ± 13 mm^3	90 ± 14 mm^3	65 ± 13 mm^3	57 ± 13 mm^3	53 ± 13 mm^3	90 ± 27 mm^3	–
–	–	–	–	–	–	–	–	–	–	CCN(C)S(=O)(=O)Nc1ccc(F)c(Oc2ccc3ncn([C@H]4COC5(CCN(C6CC(c7cc8c(cc7F)c(N7CCC(=O)NC7=O)nn8C)C6)CC5)C4)c(=O)c3c2)c1C#N (single isomer, unassigned) [Compound 70]	0.9%	110.1%	19 ± 2 mm^3	221 ± 10 mm^3	111 ± 13 mm^3	66 ± 6 mm^3	44 ± 3 mm^3	34 ± 2 mm^3	24 ± 2 mm^3	19 ± 2 mm^3	Concentration in Plasma (mean ± SEM) ([2]; 1 h): 15100 ± 3559 ng/mL; Concentration in Tumor (mean ± SEM) ([2]; 1 h): 816 ± 239 ng/g; Concentration in Liver (mean ± SEM) ([2]; 6 h): 4363 ± 1423 ng/g; Concentration in Plasma (mean ± SEM) ([2]; 6 h): 8563 ± 2312 ng/mL; Concentration in Tumor (mean ± SEM) ([2]; 6 h): 1529 ± 458 ng/g; Concentration in Liver (mean ± SEM) ([2]; 12 h): 921 ± 317 ng/g; Concentration in Plasma (mean ± SEM) ([2]; 12 h): 2105 ± 800 ng/mL; Concentration in Tumor (mean ± SEM) ([2]; 12 h): 564 ± 206 ng/g; Concentration in Plasma (mean ± SEM) ([2]; 24 h): 106 ± 10.8 ng/mL; Concentration in Tumor (mean ± SEM) ([2]; 24 h): 21.9 ± 4.93 ng/g
6990 ± 166 ng/g	1580 ± 273 ng/g	20100 ± 1510 ng/mL	10400 ± 338 ng/mL	2420 ± 572 ng/mL	172 ng/mL	1650 ± 249 ng/g	1820 ± 354 ng/g	751 ± 128 ng/g	57.6 ± 37 ng/g	CCN(C)S(=O)(=O)Nc1ccc(F)c(Oc2ccc3ncn(C4CC5(CCN(C6CCC(c7cc8c(cc7F)c(N7CCC(=O)NC7=O)nn8C)CC6F)CC5)C4)c(=O)c3c2)c1C#N (single isomer, unassigned) [Compound 83, 6-[2-cyano-3-[[ethyl(methyl)sulfamoyl]amino]-6-fluoro-phenoxy]-3-[7-[4-[3-(2,4-dioxohexahydropyrimidin-1-yl)-5-fluoro-1-methyl-indazol-6-yl]-2-fluoro-cyclohexyl]-7-azaspiro[3.5]nonan-2-yl]-4-oxo-quinazoline]	0.7%	110.3%	15 ± 1 mm^3	221 ± 11 mm^3	89 ± 11 mm^3	62 ± 7 mm^3	39 ± 3 mm^3	31 ± 2 mm^3	22 ± 1 mm^3	15 ± 1 mm^3	–
460 ± 32.7 ng/g	117 ± 30.2 ng/g	2450 ± 799 ng/mL	548 ± 28.3 ng/mL	114 ± 25.6 ng/mL	2.85 ± 0.408 ng/mL	232 ± 75.6 ng/g	129 ± 13.6 ng/g	50.6 ± 14.1 ng/g	59.5 ng/g	Cn1nc(N2CCC(=O)NC2=O)c2cc(F)c(C3CCC(N4CCC5(CC4)CC(n4cnc6ccc(Oc7c(F)ccc(NS(=O)(=O)C8CCCC8)c7C#N)cc6c4=O)C5)CC3)cc21 (single isomer, unassigned) [Compound 93, N-[2-cyano-3-[3-[7-[4-[3-(2,4-dioxohexahydropyrimidin-1-yl)-5-fluoro-1-methyl-indazol-6-yl]cyclohexyl]-7-azaspiro[3.5]nonan-2-yl]-4-oxo-quinazolin-6-yl]oxy-4-fluoro-phenyl]cyclopentanesulfonamide]	3.3%	107.4%	73 ± 18 mm^3	221 ± 9 mm^3	133 ± 6 mm^3	97 ± 6 mm^3	69 ± 5 mm^3	59 ± 5 mm^3	52 ± 4 mm^3	73 ± 18 mm^3	–
